We go through 8 compounds from patent US20260125359A1, “HETEROARYL COMPOUNDS AS MULTI-TARGET PROTEIN KINASE INHIBITORS” (FUJIAN HAIXI PHARMACEUTICALS CO., LTD., priority 2023, published 2026).

The target in one test is DDR1 (Homo sapiens, UniProt Q08345). The experiment in a line: DDR1 in vitro kinase activity assay (LanthaScreen Eu-anti-GST antibody / Kinase Tracer 178). The class given is binding. Conditions: for inhibition at 0.01 µM: compound 10 nM, read-out: DDR1 inhibition rate, 10 nM; for inhibition at 0.1 µM: compound 100 nM, read-out: DDR1 inhibition rate, 100 nM. Background: TR-FRET usually uses a lanthanide donor and a delayed reading to cut background.
Chain of DDR1 (Q08345 19-913): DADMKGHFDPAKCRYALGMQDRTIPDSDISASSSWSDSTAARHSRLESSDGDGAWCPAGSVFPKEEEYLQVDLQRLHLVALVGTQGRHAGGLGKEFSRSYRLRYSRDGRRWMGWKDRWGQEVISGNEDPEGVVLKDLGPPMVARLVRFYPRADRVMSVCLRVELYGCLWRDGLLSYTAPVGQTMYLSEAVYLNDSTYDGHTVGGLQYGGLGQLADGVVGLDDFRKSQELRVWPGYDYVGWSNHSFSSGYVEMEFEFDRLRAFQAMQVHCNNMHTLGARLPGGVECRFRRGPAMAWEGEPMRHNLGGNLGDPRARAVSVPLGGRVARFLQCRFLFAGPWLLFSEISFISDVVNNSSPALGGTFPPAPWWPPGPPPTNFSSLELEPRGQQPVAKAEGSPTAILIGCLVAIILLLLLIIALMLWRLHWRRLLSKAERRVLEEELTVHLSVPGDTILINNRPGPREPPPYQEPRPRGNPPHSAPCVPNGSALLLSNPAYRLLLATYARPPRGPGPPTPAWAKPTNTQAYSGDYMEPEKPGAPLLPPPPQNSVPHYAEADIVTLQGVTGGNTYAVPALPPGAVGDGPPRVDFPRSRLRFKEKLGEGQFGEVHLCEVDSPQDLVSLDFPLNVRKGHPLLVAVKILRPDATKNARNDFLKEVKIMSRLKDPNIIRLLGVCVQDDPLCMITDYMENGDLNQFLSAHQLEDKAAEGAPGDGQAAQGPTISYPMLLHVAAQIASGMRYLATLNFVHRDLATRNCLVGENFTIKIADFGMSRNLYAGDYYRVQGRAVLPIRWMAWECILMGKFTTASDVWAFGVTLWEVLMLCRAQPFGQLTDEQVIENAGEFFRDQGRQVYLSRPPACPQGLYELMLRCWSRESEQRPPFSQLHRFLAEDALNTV

For the next test, the target named is CSF-1R (Homo sapiens, UniProt P07333). Briefly: CSF-1R in vitro kinase activity assay (HTRF kinEASE TK). The class given is biochemical. Conditions: for inhibition at 0.01 µM: compound 10 nM, read-out: CSF-1R inhibition rate, 10 nM; for inhibition at 0.1 µM: compound 100 nM, read-out: CSF-1R inhibition rate, 100 nM.
Chain of CSF-1R (P07333 20-972): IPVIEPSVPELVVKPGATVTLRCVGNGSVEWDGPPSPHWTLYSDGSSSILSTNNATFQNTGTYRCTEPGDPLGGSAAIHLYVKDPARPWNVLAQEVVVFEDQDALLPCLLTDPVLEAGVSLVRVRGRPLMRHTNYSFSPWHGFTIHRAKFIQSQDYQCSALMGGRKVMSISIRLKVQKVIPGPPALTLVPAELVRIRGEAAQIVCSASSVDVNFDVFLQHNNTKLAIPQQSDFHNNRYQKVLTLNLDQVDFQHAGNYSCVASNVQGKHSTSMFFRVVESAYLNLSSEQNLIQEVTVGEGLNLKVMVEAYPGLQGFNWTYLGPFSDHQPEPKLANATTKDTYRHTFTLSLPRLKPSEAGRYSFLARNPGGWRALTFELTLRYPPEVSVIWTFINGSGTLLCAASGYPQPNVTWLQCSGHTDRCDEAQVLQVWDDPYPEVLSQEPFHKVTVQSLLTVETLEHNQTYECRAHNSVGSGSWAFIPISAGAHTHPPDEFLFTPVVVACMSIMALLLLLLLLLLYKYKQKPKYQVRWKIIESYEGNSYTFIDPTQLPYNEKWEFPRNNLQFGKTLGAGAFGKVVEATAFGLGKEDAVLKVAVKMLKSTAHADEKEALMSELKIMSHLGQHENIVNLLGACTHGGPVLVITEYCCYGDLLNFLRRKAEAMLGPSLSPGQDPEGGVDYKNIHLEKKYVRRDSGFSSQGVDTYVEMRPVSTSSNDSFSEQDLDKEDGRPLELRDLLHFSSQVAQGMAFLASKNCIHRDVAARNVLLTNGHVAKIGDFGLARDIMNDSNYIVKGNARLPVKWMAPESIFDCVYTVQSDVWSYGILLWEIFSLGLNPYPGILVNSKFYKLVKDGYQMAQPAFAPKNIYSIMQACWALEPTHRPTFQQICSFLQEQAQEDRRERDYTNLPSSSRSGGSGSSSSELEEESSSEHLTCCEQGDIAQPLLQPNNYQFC
Another test deals with PDGFR-α (Homo sapiens, UniProt P16234). The experiment in a line: PDGFR-α in vitro kinase activity assay (HTRF kinEASE TK). The format is biochemical. To be noted: for inhibition at 0.01 µM: compound 10 nM, read-out: PDGFRα inhibition rate, 10 nM; for inhibition at 0.1 µM: compound 100 nM, read-out: PDGFRα inhibition rate, 100 nM.
Chain of PDGFR-α (P16234 24-1089): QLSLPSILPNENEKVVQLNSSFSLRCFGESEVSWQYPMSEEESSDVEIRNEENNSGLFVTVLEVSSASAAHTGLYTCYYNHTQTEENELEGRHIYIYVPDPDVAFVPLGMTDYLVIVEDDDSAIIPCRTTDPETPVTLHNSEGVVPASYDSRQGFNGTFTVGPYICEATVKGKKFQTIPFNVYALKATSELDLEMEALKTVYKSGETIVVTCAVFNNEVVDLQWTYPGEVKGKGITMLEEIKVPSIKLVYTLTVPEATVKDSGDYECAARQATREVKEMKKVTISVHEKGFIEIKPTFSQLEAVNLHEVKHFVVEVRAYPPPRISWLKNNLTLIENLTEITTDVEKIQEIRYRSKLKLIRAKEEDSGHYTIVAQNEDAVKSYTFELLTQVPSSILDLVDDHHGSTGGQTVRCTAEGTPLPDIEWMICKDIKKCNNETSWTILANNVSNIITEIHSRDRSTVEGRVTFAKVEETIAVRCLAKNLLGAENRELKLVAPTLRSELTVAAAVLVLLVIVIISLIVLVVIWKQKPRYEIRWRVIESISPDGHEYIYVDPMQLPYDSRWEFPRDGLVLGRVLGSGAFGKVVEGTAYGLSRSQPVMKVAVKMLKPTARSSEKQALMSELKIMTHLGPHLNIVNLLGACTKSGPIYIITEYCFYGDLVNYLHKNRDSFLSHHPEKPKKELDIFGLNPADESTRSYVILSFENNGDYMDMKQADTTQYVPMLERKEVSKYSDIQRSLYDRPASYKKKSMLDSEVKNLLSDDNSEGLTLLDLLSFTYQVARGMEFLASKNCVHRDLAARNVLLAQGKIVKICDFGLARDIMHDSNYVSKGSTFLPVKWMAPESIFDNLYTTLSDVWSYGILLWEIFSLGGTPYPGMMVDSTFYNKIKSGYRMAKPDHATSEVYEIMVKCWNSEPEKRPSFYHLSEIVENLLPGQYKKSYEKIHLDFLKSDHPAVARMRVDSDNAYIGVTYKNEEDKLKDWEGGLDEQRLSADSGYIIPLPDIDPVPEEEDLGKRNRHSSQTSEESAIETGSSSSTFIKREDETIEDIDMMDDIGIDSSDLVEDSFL
Another test has as its target KIT (Homo sapiens, UniProt P10721). The experiment in a line: KIT in vitro kinase activity assay (HTRF kinEASE TK). The format is biochemical. To be noted: for inhibition at 0.01 µM: compound 10 nM, read-out: KIT inhibition rate, 10 nM; for inhibition at 0.1 µM: compound 100 nM, read-out: KIT inhibition rate, 100 nM.
For the next test, the target named is KDR (VEGFR2) (Homo sapiens, UniProt P35968). Briefly: KDR (VEGFR2) in vitro kinase activity assay (HTRF kinEASE TK). The class given is biochemical. To be noted: for inhibition at 0.01 µM: compound 10 nM, read-out: VEGFR2 inhibition rate, 10 nM; for inhibition at 0.1 µM: compound 100 nM, read-out: VEGFR2 inhibition rate, 100 nM.

Chain of KIT (P10721 26-976): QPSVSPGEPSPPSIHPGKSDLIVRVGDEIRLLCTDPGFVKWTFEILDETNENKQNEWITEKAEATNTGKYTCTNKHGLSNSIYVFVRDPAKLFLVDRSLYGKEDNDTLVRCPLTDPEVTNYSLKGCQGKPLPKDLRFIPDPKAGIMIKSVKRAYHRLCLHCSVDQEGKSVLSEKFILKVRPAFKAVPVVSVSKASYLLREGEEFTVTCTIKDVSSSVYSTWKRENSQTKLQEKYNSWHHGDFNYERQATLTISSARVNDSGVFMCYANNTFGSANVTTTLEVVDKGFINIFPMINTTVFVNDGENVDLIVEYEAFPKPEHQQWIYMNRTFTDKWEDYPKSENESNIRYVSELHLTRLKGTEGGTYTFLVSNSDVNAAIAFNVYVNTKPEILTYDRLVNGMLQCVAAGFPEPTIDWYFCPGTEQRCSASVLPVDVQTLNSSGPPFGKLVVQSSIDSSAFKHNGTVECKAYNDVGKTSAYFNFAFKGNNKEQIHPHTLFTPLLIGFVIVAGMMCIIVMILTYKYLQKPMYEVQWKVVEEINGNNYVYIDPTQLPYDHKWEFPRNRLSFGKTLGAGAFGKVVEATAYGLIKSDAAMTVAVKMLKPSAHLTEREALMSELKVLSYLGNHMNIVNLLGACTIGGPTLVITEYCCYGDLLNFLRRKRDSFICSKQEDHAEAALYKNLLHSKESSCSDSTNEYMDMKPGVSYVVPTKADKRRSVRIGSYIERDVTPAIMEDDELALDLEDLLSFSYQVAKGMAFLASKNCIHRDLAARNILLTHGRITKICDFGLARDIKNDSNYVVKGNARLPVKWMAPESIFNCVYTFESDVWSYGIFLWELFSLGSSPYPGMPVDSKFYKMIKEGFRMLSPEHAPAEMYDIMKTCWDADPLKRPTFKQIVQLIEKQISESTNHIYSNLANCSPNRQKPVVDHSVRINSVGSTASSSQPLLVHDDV

In general, inhibition refers to the change of the read-out against control, counted positive when it falls. For `Cn1ncc2ncc(O[C@H]3CCc4c(C(=O)Nc5cncc(Cl)c5)cccc43)cc21` [Compound 76ac, (S)—N-(5-chloropyridin-3-yl)-1-((1-methyl-1H-pyrazolo[4,3-b]pyridin-6-yl)oxy)-2,3-dihydro-1H-indene-4-carboxamide], the inhibition at 0.01 µM at DDR1 turned out to be 72.5%; at CSF-1R it was 71.9%; at PDGFR-α it was 13.7%; at KIT it was 12.6%; at KDR (VEGFR2), 85.4%. For the same compound, the inhibition at 0.1 µM on DDR1 was 103%; at CSF-1R, 97.3%; on PDGFR-α, 53.1%; at KIT, 54%; at KDR (VEGFR2), 98.3%.
In the case of `Cn1cc2ncc(O[C@H]3CCc4c(C(=O)Nc5cncc(Cl)c5)cccc43)cc2n1` [Compound 76ai], the inhibition at 0.01 µM stood at 94.2% at DDR1; 78.2% on CSF-1R; 37.8% at PDGFR-α; 39.6% at KIT; 96.5% at KDR (VEGFR2). Also, the inhibition at 0.1 µM at DDR1 turned out to be 99.6%; on CSF-1R it was 99.1%; at PDGFR-α, 89.3%; at KIT it was 79.1%; at KDR (VEGFR2), 102%.
In the case of `Cn1cc2ncc(O[C@H]3CCc4c(C(=O)Nc5nn(C)c6ccccc56)cccc43)cc2n1` [Compound 76al], the inhibition at 0.01 µM at DDR1 is 98%; at CSF-1R it was 105%; on PDGFR-α, 97.6%; at KIT, 91.2%; at KDR (VEGFR2), 99.1%. For the same compound, the inhibition at 0.1 µM on DDR1 was 98.5%; on CSF-1R it was 103%; at PDGFR-α it was 97.2%; on KIT, 95.9%; on KDR (VEGFR2), 95.6%.
Turning to `Cn1cc2ncc(O[C@H]3CCc4c(C(=O)Nc5nn(C)c6cccc(F)c56)cccc43)cc2n1` [Compound 76aw], the inhibition at 0.01 µM was 64% on DDR1; 65.1% at CSF-1R; 88.5% on PDGFR-α; 56% at KIT; 89.9% at KDR (VEGFR2). Moreover, the inhibition at 0.1 µM on DDR1 worked out at 93.6%; on CSF-1R, 99.1%; at PDGFR-α, 102%; at KIT, 92.4%; on KDR (VEGFR2), 101%.
Consider `Cc1cccc(NC(=O)c2cccc3c2CC[C@@H]3Oc2cnc3cn(C)nc3c2)n1` [Compound 76bd], for which the inhibition at 0.01 µM at DDR1 came to 21.2%; on CSF-1R, 15.3%; at PDGFR-α it was 32%; at KIT, 5.6%; on KDR (VEGFR2), 93.2%. Also, the inhibition at 0.1 µM turned out to be 69.7% at DDR1; 94.1% on CSF-1R; 85.7% on PDGFR-α; 31.4% on KIT; 97% on KDR (VEGFR2).
With `CN(c1cnc2cn(C)nc2c1)[C@H]1CCc2c(C(=O)Nc3cncc(Cl)c3)cccc21` [Compound 80k], the inhibition at 0.01 µM at DDR1 worked out at 14.7%; at CSF-1R, 73.7%; on PDGFR-α, 19%; on KIT, 22%; on KDR (VEGFR2), 43%. Further, the inhibition at 0.1 µM worked out at 83.9% at DDR1; 96.5% at CSF-1R; 51.2% at PDGFR-α; 47.8% on KIT; 91.9% on KDR (VEGFR2).
For the compound `CN(c1cnc2cn(C)nc2c1)[C@H]1CCc2c(C(=O)Nc3nn(C)c4ccccc34)cccc21` [Compound 80l], the inhibition at 0.01 µM is 75.1% at DDR1; 24.3% on CSF-1R; 69.1% at PDGFR-α; 69.9% on KIT; 95% at KDR (VEGFR2). Also, the inhibition at 0.1 µM turned out to be 97.9% at DDR1; 98.4% at CSF-1R; 96.9% on PDGFR-α; 104% at KIT; 100% at KDR (VEGFR2).
On to `Cn1ncc2ncc(N[C@H]3CCc4c(Nc5cc(C(C)(C)C)on5)cccc43)nc21` [Compound 86, (S)—N^4-(5-(tert-butyl)isoxazol-3-yl)-N1-(1-methyl-1H-pyrazolo[3,4-b]pyrazin-6-yl)-2,3-dihydro-1H-indene-1,4-diamine], for which the inhibition at 0.01 µM on DDR1 was 20%; at CSF-1R it was 46.6%; at PDGFR-α it was 26.8%; at KIT, 23.4%; on KDR (VEGFR2) it was 12.9%. Moreover, the inhibition at 0.1 µM came out at 98.4% at DDR1; 95.9% on CSF-1R; 96.5% on PDGFR-α; 82% at KIT; 70.1% at KDR (VEGFR2).
